Key:
Assay in all cases: Kinase selectivity, DiscoverX scanMAX Kinase assay panel (% control)
Type in all cases: binding
[1] = molecular target: T1, kinases of the scanMAX Kinase assay panel (Plasmodium falciparum, UniProt P62344); conditions: PFCDPK1(P. falciparum); 1 uM
T1 construct: purchased DiscoverX Co. (contract measurement) scanMAX Kinase assay panel
Procedure, shortened: (§1)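 Compounds were tested at 1 uM (in DMSO) against each panel kinase. % control was calculated as (compound − positive control)/(negative control − positive control)×100, where the positive control gives 0% and DMSO gives 100%. Activity toward a kinase was called at % control <35%.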

[2] = molecular target: T2, kinases of the scanMAX Kinase assay panel (Homo sapiens, UniProt Q96SB4); conditions: kinase SRPK1; 1 uM in DMSO
T2 construct: purchased DiscoverX Co. (contract measurement) scanMAX Kinase assay panel
T2 sequence (Q96SB4 whole entry): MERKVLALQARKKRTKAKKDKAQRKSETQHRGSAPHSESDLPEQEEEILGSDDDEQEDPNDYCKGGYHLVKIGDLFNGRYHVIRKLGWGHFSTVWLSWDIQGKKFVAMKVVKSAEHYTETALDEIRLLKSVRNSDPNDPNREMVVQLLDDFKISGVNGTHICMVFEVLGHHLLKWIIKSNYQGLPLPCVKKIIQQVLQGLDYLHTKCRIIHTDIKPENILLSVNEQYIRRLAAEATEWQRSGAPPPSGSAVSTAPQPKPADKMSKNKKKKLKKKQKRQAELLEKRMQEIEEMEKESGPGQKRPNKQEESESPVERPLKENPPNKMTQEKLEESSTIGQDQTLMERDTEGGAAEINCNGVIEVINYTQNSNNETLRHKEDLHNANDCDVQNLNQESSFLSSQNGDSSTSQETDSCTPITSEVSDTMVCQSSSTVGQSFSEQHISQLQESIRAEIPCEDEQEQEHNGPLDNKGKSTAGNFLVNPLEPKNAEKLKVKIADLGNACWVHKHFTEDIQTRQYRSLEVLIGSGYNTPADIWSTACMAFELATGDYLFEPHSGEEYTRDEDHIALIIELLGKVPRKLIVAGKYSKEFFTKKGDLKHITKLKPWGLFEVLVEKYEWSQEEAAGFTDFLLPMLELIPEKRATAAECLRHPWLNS
Procedure, shortened: as §1

[3] = molecular target: T3, kinases of the scanMAX Kinase assay panel (Mycobacterium tuberculosis, UniProt P9WI81); conditions: read-out: % control
T3 construct: purchased DiscoverX Co. (contract measurement) scanMAX Kinase assay panel
T3 sequence (P9WI81 whole entry): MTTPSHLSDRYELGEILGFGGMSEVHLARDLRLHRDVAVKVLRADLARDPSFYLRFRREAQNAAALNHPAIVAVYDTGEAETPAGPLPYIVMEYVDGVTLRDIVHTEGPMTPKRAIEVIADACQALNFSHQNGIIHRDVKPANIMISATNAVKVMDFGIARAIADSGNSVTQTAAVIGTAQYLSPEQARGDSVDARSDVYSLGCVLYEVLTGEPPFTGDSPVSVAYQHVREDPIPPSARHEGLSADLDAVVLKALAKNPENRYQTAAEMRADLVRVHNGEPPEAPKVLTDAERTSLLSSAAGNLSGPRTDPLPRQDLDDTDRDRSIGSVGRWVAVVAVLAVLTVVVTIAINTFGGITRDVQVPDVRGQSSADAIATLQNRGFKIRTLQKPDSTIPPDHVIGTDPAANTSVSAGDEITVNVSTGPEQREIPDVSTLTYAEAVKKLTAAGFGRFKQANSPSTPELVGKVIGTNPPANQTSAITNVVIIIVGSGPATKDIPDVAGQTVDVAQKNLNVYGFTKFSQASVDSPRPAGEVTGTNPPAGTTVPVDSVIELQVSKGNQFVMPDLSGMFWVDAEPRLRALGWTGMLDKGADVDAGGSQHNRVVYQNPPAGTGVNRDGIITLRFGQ
Procedure, shortened: as §1

[4] = molecular target: T4, kinases of the scanMAX Kinase assay panel (Homo sapiens, UniProt Q92772); conditions: CDKL2; 1 uM
T4 construct: purchased DiscoverX Co. (contract measurement) scanMAX Kinase assay panel
T4 sequence (Q92772 1-493): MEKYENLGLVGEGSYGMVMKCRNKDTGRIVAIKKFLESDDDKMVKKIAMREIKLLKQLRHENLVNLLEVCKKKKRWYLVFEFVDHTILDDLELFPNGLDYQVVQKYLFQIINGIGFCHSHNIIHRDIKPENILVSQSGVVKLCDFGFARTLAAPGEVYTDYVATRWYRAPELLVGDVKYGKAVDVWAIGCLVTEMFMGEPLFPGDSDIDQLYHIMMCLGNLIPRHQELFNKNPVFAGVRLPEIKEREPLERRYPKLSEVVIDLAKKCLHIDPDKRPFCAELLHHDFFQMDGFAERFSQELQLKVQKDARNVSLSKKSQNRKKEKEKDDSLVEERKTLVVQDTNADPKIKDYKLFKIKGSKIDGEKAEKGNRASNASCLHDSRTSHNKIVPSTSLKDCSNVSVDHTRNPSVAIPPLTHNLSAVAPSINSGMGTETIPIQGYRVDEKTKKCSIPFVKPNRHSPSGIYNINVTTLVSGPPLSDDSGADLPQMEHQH
Procedure, shortened: as §1

[5] = molecular target: T5, kinases of the scanMAX Kinase assay panel (Homo sapiens, UniProt Q9NRM7); conditions: LATS2; 1 uM
T5 construct: purchased DiscoverX Co. (contract measurement) scanMAX Kinase assay panel
T5 sequence (Q9NRM7 1-1088): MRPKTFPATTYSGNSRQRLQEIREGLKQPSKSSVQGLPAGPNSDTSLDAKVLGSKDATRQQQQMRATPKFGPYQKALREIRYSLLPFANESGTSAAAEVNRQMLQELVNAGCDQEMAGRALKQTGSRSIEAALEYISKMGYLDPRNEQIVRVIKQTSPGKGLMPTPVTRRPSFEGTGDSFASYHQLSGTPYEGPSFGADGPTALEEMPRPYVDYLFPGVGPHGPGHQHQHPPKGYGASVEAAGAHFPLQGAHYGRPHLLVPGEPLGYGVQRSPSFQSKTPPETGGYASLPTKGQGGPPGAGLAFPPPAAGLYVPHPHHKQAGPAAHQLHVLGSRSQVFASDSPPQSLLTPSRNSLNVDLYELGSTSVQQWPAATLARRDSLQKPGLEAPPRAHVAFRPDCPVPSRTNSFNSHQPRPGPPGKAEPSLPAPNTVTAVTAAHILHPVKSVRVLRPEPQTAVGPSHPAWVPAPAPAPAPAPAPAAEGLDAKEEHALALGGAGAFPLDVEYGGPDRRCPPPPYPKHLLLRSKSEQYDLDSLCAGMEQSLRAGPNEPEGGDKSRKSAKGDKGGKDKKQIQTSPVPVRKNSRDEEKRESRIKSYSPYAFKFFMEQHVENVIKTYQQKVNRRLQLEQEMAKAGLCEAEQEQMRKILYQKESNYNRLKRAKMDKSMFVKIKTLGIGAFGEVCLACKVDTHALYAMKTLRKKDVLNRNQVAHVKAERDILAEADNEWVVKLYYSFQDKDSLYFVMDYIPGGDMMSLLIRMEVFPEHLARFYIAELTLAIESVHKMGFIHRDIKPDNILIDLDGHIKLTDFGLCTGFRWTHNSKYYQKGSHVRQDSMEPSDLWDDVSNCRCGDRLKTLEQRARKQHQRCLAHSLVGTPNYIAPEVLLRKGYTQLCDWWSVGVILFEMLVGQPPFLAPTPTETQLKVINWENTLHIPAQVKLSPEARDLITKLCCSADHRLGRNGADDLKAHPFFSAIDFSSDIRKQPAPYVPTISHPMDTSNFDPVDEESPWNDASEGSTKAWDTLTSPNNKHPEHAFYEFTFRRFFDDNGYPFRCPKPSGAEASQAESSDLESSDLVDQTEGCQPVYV
Procedure, shortened: as §1

[6] = molecular target: T6, kinases of the scanMAX Kinase assay panel (Homo sapiens, UniProt Q8WTQ7); conditions: GRK7; 1 uM
T6 construct: purchased DiscoverX Co. (contract measurement) scanMAX Kinase assay panel
T6 sequence (Q8WTQ7 1-553): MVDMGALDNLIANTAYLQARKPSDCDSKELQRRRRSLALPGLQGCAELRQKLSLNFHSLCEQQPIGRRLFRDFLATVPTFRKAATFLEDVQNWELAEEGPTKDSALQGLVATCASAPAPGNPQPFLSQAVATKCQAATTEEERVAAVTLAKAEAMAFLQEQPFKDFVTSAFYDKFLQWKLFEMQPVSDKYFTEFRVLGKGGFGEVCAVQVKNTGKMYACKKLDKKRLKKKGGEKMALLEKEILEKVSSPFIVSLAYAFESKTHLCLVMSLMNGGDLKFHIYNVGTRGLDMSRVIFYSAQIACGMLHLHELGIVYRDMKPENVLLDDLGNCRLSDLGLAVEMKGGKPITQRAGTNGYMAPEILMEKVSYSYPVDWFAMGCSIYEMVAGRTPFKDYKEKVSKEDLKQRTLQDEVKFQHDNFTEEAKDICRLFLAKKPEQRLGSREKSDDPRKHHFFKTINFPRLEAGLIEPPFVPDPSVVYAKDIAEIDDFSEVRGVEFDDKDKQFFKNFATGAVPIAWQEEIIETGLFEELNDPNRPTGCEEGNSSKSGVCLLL
Procedure, shortened: as §1

T1 sequence (P62344 whole entry): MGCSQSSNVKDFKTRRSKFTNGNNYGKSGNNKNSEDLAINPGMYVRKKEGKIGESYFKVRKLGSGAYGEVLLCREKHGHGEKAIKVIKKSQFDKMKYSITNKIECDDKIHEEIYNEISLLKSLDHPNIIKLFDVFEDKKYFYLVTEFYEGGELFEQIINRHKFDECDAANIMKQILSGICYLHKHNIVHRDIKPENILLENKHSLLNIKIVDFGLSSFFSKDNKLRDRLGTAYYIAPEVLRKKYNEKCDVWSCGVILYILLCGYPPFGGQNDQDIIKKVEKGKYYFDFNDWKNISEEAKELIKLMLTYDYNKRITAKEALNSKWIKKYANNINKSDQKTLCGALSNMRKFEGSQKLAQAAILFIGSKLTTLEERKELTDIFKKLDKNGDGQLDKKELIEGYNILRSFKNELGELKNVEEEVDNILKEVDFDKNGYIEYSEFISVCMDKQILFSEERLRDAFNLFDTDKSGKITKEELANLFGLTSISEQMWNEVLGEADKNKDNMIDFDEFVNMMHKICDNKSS

Row | Compound | remaining binding at 1 µM [1] [%] | remaining binding at 1 µM [2] [%] | remaining binding at 1 µM [3] [%] | remaining binding at 1 µM [4] [%] | remaining binding at 1 µM [5] [%] | remaining binding at 1 µM [6] [%]
1 | CNc1nc(Nc2ccc(C(=O)N3CCOCC3)cc2OC)nc2[nH]cc(C#N)c12 [Example 1, 2-((2-methoxy-4-(morpholine-4-carbonyl)phenyl)amino)-4-(methylamino)-7H-pyrrolo[2,3-d]pyrimidine-5-carbonitrile] | 87 | 66 | 90 | 99 | 61 | 71
2 | CC1(Nc2nc(Nc3cnn([C@H]4CCN(C5COC5)C[C@@H]4F)c3Cl)nc3[nH]cc(C#N)c23)CC1 [Example 52, 2-((5-chloro-1-((3S,4S)-3-fluoro-1-(oxetane-3-yl)piperidine-4-yl)-1H-pyrazole-4-yl)amino)((1-methylcyclopropyl)amino)-7H-pyrrolo[2,3-d]pyrimidine-5-carbonitrile] | 52 | 0.05 | 1.1 | 73 | 11 | 65
3 | CCNc1nc(Nc2ccc(C(=O)N3CCC(N4CCOCC4)CC3)cc2OC)nc2[nH]cc(C(F)(F)F)c12 [Example 104, (4-((4-(ethylamino)-5-(trifluoromethyl)-7H-pyrrolo[2,3-d]pyrimidine-2-yl)amino)-3-methoxyphenyl)(4-morpholinopiperidine-1-yl)methanone] | 100 | 100 | 83 | 100 | 87 | 78
